In one assay the target is T1, CB2 receptor (Homo sapiens, UniProt P34972).
T1 construct: host or cells: CHO-K1-CB2
The experiment in a line: cAMP assay (HitHunter) in CHO-K1-CB2 cells, agonist and antagonist modes. The class given is cell-based. Conditions: for CB2 Mode of action: CHO-K1-CB2 cells, forskolin 20 μM, NA = no activity; for EC50 / CB2 Efficacy (%): agonist or antagonist mode; for EC50: antagonist mode against CP-55940 at EC90; for CB2 Efficacy (%): percentage of the response to CP-55940.

The target of a further assay is T2, CB1 receptor (Homo sapiens, UniProt P21554).
T2 construct: host or cells: CHO-K1-CB1
Kind of assay: cell-based. In kind it is cell-based.

The next assay addresses human CB2 receptors. Also noted: method as in PMID 28861508. Conditions: reference standard contaminated with 2% Δ9-THC; read-out: approximate Ki at human CB2; cited from earlier work.
The target of another assay is human CB1. Also noted: method as in PMID 28861508. Conditions: reference standard contaminated with 2% Δ9-THC; read-out: approximate Ki at human CB1; cited from earlier work.
Setting [1] is: percentage of the response to CP-55940, agonist or antagonist mode.

Where two headings read alike, the source gives them in different places.

T1 sequence (P34972 whole entry): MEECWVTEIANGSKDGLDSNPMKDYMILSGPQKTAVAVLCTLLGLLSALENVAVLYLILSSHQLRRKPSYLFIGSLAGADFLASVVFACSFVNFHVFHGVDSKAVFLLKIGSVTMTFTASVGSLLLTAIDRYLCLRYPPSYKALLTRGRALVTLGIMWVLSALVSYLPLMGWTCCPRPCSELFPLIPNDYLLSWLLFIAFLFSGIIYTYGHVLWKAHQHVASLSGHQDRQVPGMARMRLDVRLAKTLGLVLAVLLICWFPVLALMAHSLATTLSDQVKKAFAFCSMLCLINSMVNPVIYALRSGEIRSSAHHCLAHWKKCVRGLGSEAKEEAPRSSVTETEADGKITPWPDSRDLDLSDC
T2 sequence (P21554 whole entry): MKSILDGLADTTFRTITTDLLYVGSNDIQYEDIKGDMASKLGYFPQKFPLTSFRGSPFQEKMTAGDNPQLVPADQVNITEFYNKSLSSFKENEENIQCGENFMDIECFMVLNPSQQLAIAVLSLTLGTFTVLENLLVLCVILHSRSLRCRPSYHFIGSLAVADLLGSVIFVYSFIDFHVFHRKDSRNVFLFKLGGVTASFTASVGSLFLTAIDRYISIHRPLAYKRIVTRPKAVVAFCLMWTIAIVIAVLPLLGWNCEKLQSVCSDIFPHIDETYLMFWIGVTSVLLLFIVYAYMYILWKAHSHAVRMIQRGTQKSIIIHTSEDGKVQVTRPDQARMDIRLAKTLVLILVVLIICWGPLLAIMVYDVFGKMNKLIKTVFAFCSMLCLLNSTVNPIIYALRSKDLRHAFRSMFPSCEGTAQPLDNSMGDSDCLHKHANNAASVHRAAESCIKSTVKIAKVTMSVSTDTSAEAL

For `COc1ccc(C(=O)c2c(C)n(CCN3CCOCC3)c3cc(I)ccc23)cc1` [AM-630], at CB2 receptor, the “CB2 Mode of action” value is reported as “Antagonist” and the “CB2 Efficacy (%)” value is 100%. Besides, the EC50 on CB2 receptor (read-out: CB2 EC50) stood at 0.146 ± 0.084 µM.

Turning to `C=C(C)[C@@H]1CCC(C)=C[C@H]1c1c(O)cc(CCCCC)cc1O` [CBD, cannabidiol, reference compound], the “CB1 Mode of action” value at CB1 receptor (CHO-K1-CB1 cells, forskolin 20 μM, NA = no activity) is recorded as “Antagonist”. Besides, the “CB1 Efficacy (%)” value at CB1 receptor (setting [1]) stood at 40%. At CB2 receptor, the “CB2 Mode of action” value is on record as “Antagonist” and the “CB2 Efficacy (%)” value was 100%.

`C=C(C)[C@@H]1CCC(C)=C[C@H]1c1c(O)cc(CCCCC)c(C(=O)O)c1O` [CBDA, cannabidiolic acid]: the EC50 was more than 10 µM at CB1 receptor and more than 100 µM at CB2 receptor (read-out: CB2 EC50). In addition, the “CB1 Efficacy (%)” value at CB1 receptor (setting [1]) was determined as 0%. Moreover, the “fold weaker than CBD at CB2 receptor as an antagonist” value at CB2 receptor (comparison of EC50 values) was “more than 10 fold”. The “CB2 Efficacy (%)” value at CB2 receptor is −23%.

Regarding `CCCCCCC(C)(C)c1ccc([C@@H]2C[C@H](O)CC[C@H]2CCCO)c(O)c1` [CP-55940, reference compound], at CB1 receptor, the “CB1 Efficacy (%)” value is 100% and the “CB1 Mode of action” value was “Agonist”. On CB2 receptor, the “CB2 Mode of action” value is recorded as “Agonist” and the “CB2 Efficacy (%)” value worked out at 100%.

For `CCCCCc1cc(O)c2c(c1)OC(C)(C)[C@@H]1CCC(C)=C[C@@H]21` [Δ^9-THC, Δ^9-tetrahydrocannabinol], on CB2 receptor, the “CB2 Mode of action” value was “Weak partial agonist” and the “CB2 Efficacy (%)” value was 20%.

Take `CCCCCc1cc2c(c(O)c1C(=O)O)[C@@H]1C=C(C)CC[C@H]1C(C)(C)O2` [Δ^9-THCA, Δ^9-tetrahydrocannabinolic acid]: the Ki at human CB2 receptors was approximately 12.5 µM. Further, on CB1 receptor, the “CB1 Efficacy (%)” value was found to be 100%, the “CB1 Mode of action” value was “Weak agonist” and the EC50 came to 1.8 ± 0.7 µM. Besides, the Ki at human CB1 is approximately 3.1 µM. This molecule showed an EC50 on CB2 receptor (CB2 EC50 (μM)) of 30 ± 15 µM. At CB2 receptor, the “CB2 Mode of action” value is recorded as “Weak agonist” and the “CB2 Efficacy (%)” value is listed as 100%.

Source of the values: paper PMC6757234, “Extractions of Medical Cannabis Cultivars and the Role of Decarboxylation in Optimal Receptor Responses” (Cannabis and Cannabinoid Research, 2019).
